The source of these data is patent US10149470B2, “Methods and compositions for vein harvest and autografting” (Vanderbilt University, priority 2009, dated 2018).

“Also recorded” adds a separate entry of the source.

Holding throughout (assay type): cell-based
The test system of test [1] is human saphenous vein. Description: KCl-induced contraction of human saphenous vein rings treated with erioglaucine. Conditions: FIGS. 11A-B. How it is done:
Effect of erioglaucine on human saphenous vein was determined using de-identified discarded segments of human saphenous vein from patients undergoing coronary artery bypass or peripheral vascular bypass surgery (n=4). The veins were stored in a saline solution until the end of the surgical procedure at which time they were placed in cold transplant harvest buffer (100 mM potassium lactobionate, 25 mM KH2PO4, 5 mM MgSO4, 30 mM raffinose, 5 mM adenosine, 3 mM glutathione, 1 mM allopurinol, 50 g/L hydroxyethyl starch, pH 7.4). The vessels were tested within 24 hrs of harvest storage in transplant harvest buffer at 4° C. To test the viability, rings 1.0 mm in width were cut from segments of saphenous vein dissected free of fat and connective tissue, treated with either a solution of erioglaucine (FCF, 2.6 mM, in 5% propylene glycol and water) or vehicle and incubated for 30 min at room temperature. The tissues were then stripped of the endothelium and suspended in a muscle bath containing a bicarbonate buffer, gassed with 95% O2/5% CO2 at 37° C. The rings were manually stretched to 4 g of tension, and was maintained at a resting tension of 1 g was obtained and equilibrated for ˜2 hr. […] The rings were contracted with 110 mM KCl (with equimolar replacement of NaCl in bicarbonate buffer), and the force generated was measured. […]

Test [2] has as its system porcine saphenous vein. Description: Intimal thickening of distended porcine saphenous vein rings in 14 day organ culture. The following applies: 50 μM dye, 14 days culture, distended to >300 mm Hg, compared to Distended-Control; FIG. 14. How it is done:
Fresh porcine saphenous vein was harvested by a no touch method under sterile conditions and stored in cold transplant harvest buffer (100 mM potassium lactobionate, 25 mM KH2PO4, 5 mM MgSO4, 30 mM Raffinose, 5 mM Adenosine, 3 mM Glutathione, 1 mM Allopurinol, 50 g/L Hydroxyethyl starch, pH 7.4). The vessels were used within 24 hr of harvest. The veins were divided into three segments that were left untreated (Unmanipulated, n=7), distended (Distended, n=8) to >300 mm Hg, or distended in the presence of the pressure relief valve (Pop Off, n=7). Each segment was then cut into ˜1 mm rings and one ring from each condition was immediately fixed in formalin (Pre-culture). The other rings were cultured in RPMI medium supplemented with 1% L-glutamine, penicillin/streptomycin and 30% Fetal bovine serum at 5% CO2 and 37° C. in the absence (Control) or presence of either 50 μM erioglaucine (FCF), 50 μM brilliant blue G (BBG) or 50 μM Allura Red (Red) for 14 days. After 14 days, the rings were fixed in formalin, sectioned at 5 μm and stained using Verhoff Van Gieson stain. Light micrograph of the rings was captured using a Axiovert 200 and intimal thickness was measured using AxioVision.

Test [3] deals with human saphenous vein. Description: Intimal thickness of human saphenous vein rings in 14 day organ culture. The following applies: 50 μM erioglaucine, 14 days culture, compared to Control; FIG. 13. How it is done: Segments of human saphenous vein were collected prior to preparation of the vein for transplantation into the arterial circulation (unmanipulated, UM) and after surgical preparation (after manipulation, AM) from the same patients in PlasmaLyte and were used within 2 hr of harvest. The segment was cut into ˜1 mm rings and one ring from each group was fixed in formalin (Pre-culture). The other rings were cultured in RPMI medium supplemented with 1% L-glutamine, 1% penicillin/streptomycin and 30% fetal bovine serum at 5% CO2 and 37° C. in the absence (Control) or presence of 50 μM erioglaucine (FCF) for 14 days. After 14 days, the rings were fixed in formalin, sectioned at 5 μm and stained using Verhoff Van Gieson stain. Light micrograph of the rings was captured using an Axiovert 200 and intimal thickness was measured using AxioVision. Data represent % increase of intimal thickness related to basal intimal thickness of the pre-culture ring which was set as 0%. The error bars show the standard error of the mean.

For test [4], the system named is porcine saphenous vein. As to the kind of experiment: KCl-induced contraction of porcine saphenous vein after stretch injury, with or without dye. How it is done: Freshly isolated porcine saphenous vein was collected in cold transplant harvest buffer (100 mM potassium lactobionate, 25 mM KH2PO4, 5 mM MgSO4, 30 mM raffinose, 5 mM adenosine, 3 mM glutathione, 1 mM allopurinol, 50 g/L hydroxyethyl starch, pH 7.4). The vessels were tested within 24 hours of harvest and storage in transplant harvest buffer at 4° C. The vein was dissected free of fat and connective tissue and cut into 2 cm long segments. The segments were stretched to twice their resting length (stretched; n=7) or not manipulated (control; n=12). After stretching, the segments from both groups were further divided. A solution of erioglaucine (FCF, 2.6 mM, in 5% propylene glycol and water) or vehicle was then applied with a cotton swab in a longitudinal line to the untreated (FCF; n=8) or the stretched (Stretched+FCF; n=3) vein segments. The segments were incubated at room temperature for 15 min in Plasmalyte and then cut into rings. The rings were suspended in a muscle bath containing a bicarbonate buffer (120 mM NaCl, 4.7 mM KCl, 1.0 mM MgSO4, 1.0 mM NaH2PO4, 10 mM glucose, 1.5 mM CaCl2, and 25 mM […], pH 7.4), bubbled with 95% O2/5% CO2 at 37° C. The rings were manually stretched to 4 g of tension, and maintained at a resting tension of 1 g and equilibrated for ˜2 hr.
Rings from stretched segments were either incubated with 50 μM Allura Red (+Red) or 50 μM of erioglaucine (+FCF) for 30 min. The rings were then allowed to equilibrate in the bicarbonate buffer for before contracting with 110 mM KCl. Force generated was converted to stress (10^5 N/m^2). Data represent relative contractile response to Control rings which was set as 100%.

Test [5] concerns human saphenous vein. As to the kind of experiment: BzATP-induced contraction of saphenous vein rings after erioglaucine pretreatment. The following applies: erioglaucine 50-200 μM for 30 min, then 100 μM BzATP; FIG. 12. How it is done: Human saphenous vein segments were collected after harvest before surgical manipulation from patients undergoing coronary artery bypass or peripheral vascular bypass surgery and stored in PlasmaLyte. The vessels were tested within 2 hours of harvest. Freshly isolated porcine saphenous vein was collected in cold transplant harvest buffer (100 mM potassium lactobionate, 25 mM KH2PO4, 5 mM MgSO4, 30 mM Raffinose, 5 mM Adenosine, 3 mM Glutathione, 1 mM Allopurinol, 50 g/L Hydroxyethyl starch, pH 7.4). The vessels were tested within 24 hours of harvest. Rings 1.0 mm in width were cut from porcine saphenous veins (FIG. 12A, n=2) and unmanipulated human saphenous vein (FIG. 12B, n=4) dissected free of fat and connective tissue. The rings were then stripped of the endothelium and suspended in a muscle bath containing a bicarbonate buffer, bubbled with 95% O2/5% CO2 at 37° C. The rings were manually stretched to 4 g of tension, and was maintained at a resting tension of 1 g was obtained and equilibrated for ˜2 hr. Force measurements were obtained using a Radnoti Glass Technology (Monrovia, Calif.) force transducer (159901A) interfaced with a Powerlab data acquisition system and Chart software (AD Instruments, Colorado Springs, Colo.). Rings were contracted with 110 mM KCl. […] Force was measured and converted to stress. Response was expressed as % of maximal KCl contraction. […]

Consider `CCN(Cc1cccc(S(=O)(=O)[O-])c1)c1ccc(C(=C2C=CC(=[N+](CC)Cc3cccc(S(=O)(=O)[O-])c3)C=C2)c2ccccc2S(=O)(=O)[O-])cc1.[Na+].[Na+]` [erioglaucine], for which, in the test with human saphenous vein [1], the “smooth muscle viability (in words)” value is “restores smooth muscle viability”. Besides, the “distension induced increases in intimal thickening” value with porcine saphenous vein [2] is “inhibited distension induced increases in intimal thickening; also recorded: reduces intimal layer thickening”. In addition, the “development of intimal thickness” value in the test with human saphenous vein [3] is “inhibited the development of intimal thickness; also recorded: reduces intimal thickness”. Also, the “restoration of functional viability (contractile response to KCl) after stretch injury” value in the test on porcine saphenous vein [4] (50 μM dye for 30 min on rings from stretched segments, FIG. 10) is reported as “significantly restored contractile response”. The “restoration of functional viability after stretch injury (in words)” value in the test with porcine saphenous vein [4] (FIG. 9) is given as “restores functional viability”. Besides, in the test on human saphenous vein [5], the BzATP induced contraction entry was “significantly inhibited BzATP induced contraction; also recorded: blocks BzATP-induced contraction”.
